Data from patent publication US20220411726A1, “STABILIZED LIQUID BORON-FREE ENZYME COMPOSITIONS” (Novozymes A/S, priority 2019, published 2022).
Blank lines part the entries; values can stand above or below the compound they belong to.

How the values were obtained:
Pectate lyase = test: Increase in enzyme solubility (supernatant enzyme activity), pectate lyase; assay type: physicochemical; conditions: pectate lyase suspension, 2 hours at room temperature
Description: (§1) An aqueous enzyme solution produced via fermentation of microorganism and recovered by removal of cells were concentrated using ultrafiltration to form a supersaturated protein solution. The solution was cooled below 5° C. for more than 24 hours to generate protein precipitate. The protein precipitate was suspended in the cold solution by shaking before use. Water and 1,2-hexanediol or glycerol were added to the protein suspension to obtain a diluted protein suspension with the indicated concentration of 1,2-hexanediol or glycerol while keeping the dilution of the protein suspension constant (70% w/w protein suspension to 30% w/w water/1,2-hexanediol/glycerol). The diluted protein suspensions were mixed for 2 hours at room temperature on a magnetic stirred followed by centrifugation to generate a clear supernatant. The obtained supernatant was analyzed for enzyme activity. The data in Table 5 show how much the enzyme solubility (enzyme activity) has increased compared to the reference sample, which only contains water.

[1] = system: aqueous protease solution; test: Physical stability of a protease solution with 1,2-hexanediol or glycerol (visual inspection and NTU); assay type: physicochemical; conditions: additive 10% w/w; protease 6.8% w/w; 4 weeks at 25° C.
Description: (§2) Physical stability is the ability to maintain a transparent, preferably clear, composition. This may be evaluated by visual inspection, or by centrifugation. For example, the liquid composition may centrifugated at 1200 G for 10 minutes to determine if a pellet (solid phase) is formed. Alternatively, transparency may be measured as turbidity or haziness, by using a nephelometer to measure NTU to determine light scattering.
(§3) An aqueous protease solution and an aqueous pectate lyase solution were formulated with 10% w/w water, 10% w/w 1,2-hexanediol, or 10% w/w glycerol to a final enzyme protein concentration of 6.8% w/w and 8.1% w/w, respectively. The physical stability was evaluated after storage for 4 weeks at 25° C., by visual inspection and by NTU measurements, as shown in Table 4.

[2] = system: aqueous pectate lyase solution; test: Physical stability of a pectate lyase solution with 1,2-hexanediol or glycerol (visual inspection and NTU); assay type: physicochemical; conditions: additive 10% w/w; pectate lyase 8.1% w/w; 4 weeks at 25° C.
Description: as §2, §3

Protease = test: Increase in enzyme solubility (supernatant enzyme activity), protease; assay type: physicochemical; conditions: protease suspension, 2 hours at room temperature
Description: as §1

Mannanase = test: Increase in enzyme solubility (supernatant enzyme activity), mannanase; assay type: physicochemical; conditions: mannanase suspension, 2 hours at room temperature
Description: as §1

aqueous amylase solution = test: Physical stability of an amylase solution with 1,2-octanediol (visual inspection and NTU); assay type: physicochemical; conditions: 0.3% w/w 1,2-octanediol, amylase 4.3% w/w, 40% w/w glycerol, pH 4.8
Description: as §2
An aqueous amylase solution was formulated with 40% w/w glycerol at pH 4.8 to a final enzyme protein concentration of 4.3% w/w. A sample was prepared by adding 0.3% w/w 1,2-octanediol to the amylase solution, and the physical stability was evaluated by visual inspection and NTU measurement, as shown in Table 2.

[3] = system: Escherichia coli, Pseudomonas aeruginosa, Salmonella havana, Acinetobacter spp., Staphylococcus aureus, Staphylococcus xylosus, Enterococcus faecium; test: Microbial stability challenge of protease formulation, bottle 1; assay type: cell-based; conditions: inoculated to 10^5 CFU/mL
Description: (§4) An aqueous protease (subtilisin) solution was formulated with 40% w/w glycerol at pH 6.0 to a final enzyme protein concentration of 5.5% w/w. Two samples were prepared by adding 4% w/w 1,2-hexanediol or 0.3% w/w 1,2-octanediol to the protease solution.
(§5) This was done by challenging the formulations with the microorganisms in Table 7. Each of the three bottles in Table 8 were inoculated to a total of 10^5 CFU/mL of the test microorganisms.
(§6) The bottles were analyzed for CFU/mL after 2 and 4 weeks of incubation at 20-25° C. CFU (colony forming units) per mL was measured using standard microbiological methods.

[4] = system: Aspergillus niger, Candida parapsilosis, Candida famata; test: Microbial stability challenge of protease formulation, bottle 3; assay type: cell-based; conditions: inoculated to 10^5 CFU/mL
Description: as §4, §5, §6

[5] = system: Lactobacillus buchneri, Lactobacillus para paracasei; test: Microbial stability challenge of protease formulation, bottle 2; assay type: cell-based; conditions: inoculated to 10^5 CFU/mL
Description: as §4, §5, §6

aqueous lipase solution = test: Physical stability of a lipase solution with 1,2-hexanediol or 1,2-octanediol (visual inspection); assay type: physicochemical; conditions: lipase 3% w/w, 15% w/w sorbitol, 6% w/w MPG
Description: as §2
An aqueous lipase solution was formulated with 15% w/w sorbitol and 6% w/w MPG to a final enzyme protein concentration of 3% w/w. Two samples were prepared by adding 1% w/w 1,2-hexanediol or 0.3% w/w 1,2-octanediol to the lipase solution.

[6] = system: amylase (Fortiva Revo from Novozymes); test: Turbidity of commercial liquid amylase product after addition of 1,2-hexanediol (nephelometer); assay type: physicochemical
Description: (§7) The transparency (turbidity) of two commercial liquid protease (Fermax from Novozymes) and amylase (Fortiva Revo from Novozymes) products were evaluated before and after addition of different amounts of 1,2-hexanediol.

protease (subtilisin) = test: Enzymatic stability: residual activity of protease after 4 weeks storage; assay type: physicochemical
Description: Enzymatic stability is the ability to maintain enzymatic activity after storage. This may be determined by measuring the enzymatic activity before and after storage (for example, 4 weeks storage at 25° C.) to determine how much activity is lost. For practical purposes, the residual activity may be determined by comparing the activity of a stored sample and a frozen reference sample, which are analyzed at the same time to eliminate analytical day-to-day variation.
An aqueous protease (subtilisin) solution was produced via fermentation of microorganism, recovered by removal of cells and concentrated using ultrafiltration. Water and 1,2-hexanediol were added to the protease solution to obtain a diluted protease solution with the indicated concentration of 1,2-hexanediol while keeping the dilution of the protease solution constant (70 w/w % protease solution to 30% w/w water/1,2-hexanediol). The diluted protease solutions were incubated in closed vials at −18° C., 25° C. and 40° C. for 4 weeks. The protease activity was measured in the stored samples and residual activity calculated by using protease activity in samples stored at −18° C. as reference.

[7] = system: protease (Fermax from Novozymes); test: Turbidity of commercial liquid protease product after addition of 1,2-hexanediol (nephelometer); assay type: physicochemical
Description: as §7

[8] = 0.3% w/w 1,2-octanediol, 2 weeks at 20-25° C.
[9] = 0.3% w/w 1,2-octanediol, 4 weeks at 20-25° C.
[10] = 4% w/w 1,2-hexanediol, 2 weeks at 20-25° C.
[11] = 4% w/w 1,2-hexanediol, 4 weeks at 20-25° C.

Structure (SMILES): OCC(O)CO [Glycerol, glycerol, reference compound]
Increase in enzyme solubility (enzyme activity) compared to the reference sample (Pectate lyase; additive 2% w/w): 10%
Increase in enzyme solubility (enzyme activity) compared to the reference sample (Pectate lyase; additive 5% w/w): 32%
Turbidity [1]: 71.2 NTU
Visual score [1]: precipitate
Turbidity [2]: 540 NTU
Visual score [2]: precipitate
Increase in enzyme solubility (enzyme activity) compared to the reference sample (Protease; additive 2% w/w): 0%
Increase in enzyme solubility (enzyme activity) compared to the reference sample (Protease; additive 5% w/w): 3%
Increase in enzyme solubility (enzyme activity) compared to the reference sample (Mannanase; additive 2% w/w): 10%
Increase in enzyme solubility (enzyme activity) compared to the reference sample (Mannanase; additive 5% w/w): 41%

Turbidity (aqueous amylase solution; 4 weeks at 5° C.): 19.1 NTU
Visual score (aqueous amylase solution; 4 weeks at 5° C.): haze
Turbidity (aqueous amylase solution; 4 weeks at 25° C.): 11.9 NTU
Visual score (aqueous amylase solution; 4 weeks at 25° C.): haze
Turbidity (aqueous amylase solution; 4 weeks at 40° C.): 12.7 NTU
Visual score (aqueous amylase solution; 4 weeks at 40° C.): haze
Physical stability by visual inspection (aqueous lipase solution; 0.3% w/w 1,2-octanediol, 4 weeks at 5° C.): clear
Physical stability by visual inspection (aqueous lipase solution; 0.3% w/w 1,2-octanediol, 4 weeks at 25° C.): clear
Physical stability by visual inspection (aqueous lipase solution; 0.3% w/w 1,2-octanediol, 4 weeks at 40° C.): haze
Structure (SMILES): CCCCCCC(O)CO (stereo not drawn) [1,2-octanediol]
Microbial stability, measured as CFU/mL [3, 8]: 3.0 × 10^2 CFU/mL
Microbial stability, measured as CFU/mL [3, 9]: <1.0 × 10^2 CFU/mL
Microbial stability, measured as CFU/mL [4, 8]: 7.0 × 10^2 CFU/mL
Microbial stability, measured as CFU/mL [4, 9]: <1.0 × 10^2 CFU/mL
Microbial stability, measured as CFU/mL [5, 8]: <1.0 × 10^2 CFU/mL
Microbial stability, measured as CFU/mL [5, 9]: <1.0 × 10^2 CFU/mL

Structure (SMILES): CCCCC(O)CO (stereo not drawn) [1,2-hexanediol]
Turbidity ([6]; 5% w/w 1,2-hexanediol added to liquid amylase product): 17.2 NTU
Turbidity ([6]; 10% w/w 1,2-hexanediol added to liquid amylase product): 14.6 NTU
Microbial stability, measured as CFU/mL [3, 10]: <1.0 × 10^2 CFU/mL
Microbial stability, measured as CFU/mL [3, 11]: <1.0 × 10^2 CFU/mL
Increase in enzyme solubility (enzyme activity) compared to the reference sample (Pectate lyase; additive 2% w/w): 32%
Increase in enzyme solubility (enzyme activity) compared to the reference sample (Pectate lyase; additive 5% w/w): 66%
Residual activity of protease after 4 weeks storage (protease (subtilisin); 2% w/w 1,2-hexanediol, 25° C.): 48%
Residual activity of protease after 4 weeks storage (protease (subtilisin); 2% w/w 1,2-hexanediol, 40° C.): 8%
Residual activity of protease after 4 weeks storage (protease (subtilisin); 2% w/w 1,2-hexanediol, −18° C. (reference temperature for the calculation)): 100%
Residual activity of protease after 4 weeks storage (protease (subtilisin); 5% w/w 1,2-hexanediol, 25° C. (room temperature)): 77%
Residual activity of protease after 4 weeks storage (protease (subtilisin); 5% w/w 1,2-hexanediol, 40° C.): 14%
Residual activity of protease after 4 weeks storage (protease (subtilisin); 5% w/w 1,2-hexanediol, −18° C. (reference temperature for the calculation)): 100%
Turbidity [1]: 9.4 NTU
Visual score [1]: clear
Microbial stability, measured as CFU/mL [4, 10]: <1.0 × 10^2 CFU/mL
Microbial stability, measured as CFU/mL [4, 11]: <1.0 × 10^2 CFU/mL
Turbidity [2]: 31.2 NTU
Visual score [2]: haze
Turbidity ([7]; 5% w/w 1,2-hexanediol added to liquid protease product): 21.2 NTU
Turbidity ([7]; 10% w/w 1,2-hexanediol added to liquid protease product): 11.7 NTU
Microbial stability, measured as CFU/mL [5, 10]: <1.0 × 10^2 CFU/mL
Microbial stability, measured as CFU/mL [5, 11]: <1.0 × 10^2 CFU/mL
Physical stability by visual inspection (aqueous lipase solution; 1% w/w 1,2-hexanediol, 4 weeks at 5° C.): clear
Physical stability by visual inspection (aqueous lipase solution; 1% w/w 1,2-hexanediol, 4 weeks at 25° C.): haze
Physical stability by visual inspection (aqueous lipase solution; 1% w/w 1,2-hexanediol, 4 weeks at 40° C.): precipitate
Increase in enzyme solubility (enzyme activity) compared to the reference sample (Protease; additive 2% w/w): 11%
Increase in enzyme solubility (enzyme activity) compared to the reference sample (Protease; additive 5% w/w): 47%
Increase in enzyme solubility (enzyme activity) compared to the reference sample (Mannanase; additive 2% w/w): 7%
Increase in enzyme solubility (enzyme activity) compared to the reference sample (Mannanase; additive 5% w/w): 48%
